Data on 32 compounds can be found in ChEMBL document CHEMBL3044645, “Synthesis and Pesticidal Activities of N-Phosphinoyl Heterocycles” (J Pestic Sci, 1997).

Data set [1] deals with Myzus persicae. Kind of data set: Aphicidal activity against Myzus persicae (green peach aphid) in cabbage leaf at 800 ppm after 2 days. The class given is functional.
The test system of data set [2] is Meloidogyne incognita. The data set is described as follows: Nematicidal activity against Meloidogyne incognita (root-knot nematode) at 8 kg/ha after 3 weeks. The class given is functional.
The test system of data set [3] is Tetranychus urticae. The data set is described as follows: Acaricidal activity against Tetranychus urticae (two-spotted spider mite) in French bean leaf at 800 ppm after 2 days. It is filed as functional.
A short description of data set [4]: Dissociation constant, pKa of the compound by titration method. It is filed as physicochemical.
In data set [5] the test system is Myzus persicae. The data set is described as follows: Aphicidal activity against Myzus persicae (green peach aphid) in cabbage leaf at 200 to 800 ppm after 2 days. It is filed as functional.
For data set [6], the system named is Tetranychus urticae. The data set is described as follows: Acaricidal activity against Tetranychus urticae (two-spotted spider mite) in French bean leaf at 200 to 800 ppm after 2 days. The class given is functional.
Data set [7] concerns Meloidogyne incognita. The data set is described as follows: Nematicidal activity against Meloidogyne incognita (root-knot nematode) at 4 to 8 kg/ha after 3 weeks. The class given is functional.
The test system of data set [8] is Meloidogyne incognita. Kind of data set: Nematicidal activity against Meloidogyne incognita (root-knot nematode) at 1 kg/ha after 3 weeks. It is filed as functional.
The subject of data set [9] is Tetranychus urticae. The data set is described as follows: Acaricidal activity against Tetranychus urticae (two-spotted spider mite) in French bean leaf at <50 ppm after 2 days. It is filed as functional.
The test system of data set [10] is Myzus persicae. The data set is described as follows: Aphicidal activity against Myzus persicae (green peach aphid) in cabbage leaf at <50 ppm after 2 days. It is filed as functional.
Data set [11] has as its system Meloidogyne incognita. Kind of data set: Nematicidal activity against Meloidogyne incognita (root-knot nematode) at 1 to 4 kg/ha after 3 weeks. The class given is functional.
A short description of data set [12]: Acute toxicity in Mus musculus (mouse). The class given is organism-based. The conditions noted are these: in vivo.
Data set [13] relates to Myzus persicae. Kind of data set: Insecticidal activity against Myzus persicae (green peach aphid). The class given is functional.
The test system of data set [14] is Meloidogyne incognita. The data set is described as follows: Insecticidal activity against Meloidogyne incognita (root-knot nematode). The class given is functional, organism-based.
For data set [15], the system named is Tetranychus urticae. The data set is described as follows: Insecticidal activity against Tetranychus urticae (two-spotted spider mite). The class given is functional.
The test system of a further data set is Musca domestica. The data set is described as follows: Insecticidal activity against adult Musca domestica (house fly) assessed per adult. The class given is functional.
Data set [16] relates to Myzus persicae. Kind of data set: Aphicidal activity against Myzus persicae (green peach aphid) in cabbage leaf at 50 to 200 ppm after 2 days. The class given is functional.
Data set [17] concerns Tetranychus urticae. Kind of data set: Acaricidal activity against Tetranychus urticae (two-spotted spider mite) in French bean leaf at 50 to 200 ppm after 2 days. The class given is functional.
In a further data set the target is Acetylcholinesterase (Musca domestica, UniProt Q7YWJ9). Kind of data set: Inhibition of Musca domestica (house fly) head AchE. The conditions noted are these: read-out: I50.
Chain of Acetylcholinesterase (Q7YWJ9 whole entry): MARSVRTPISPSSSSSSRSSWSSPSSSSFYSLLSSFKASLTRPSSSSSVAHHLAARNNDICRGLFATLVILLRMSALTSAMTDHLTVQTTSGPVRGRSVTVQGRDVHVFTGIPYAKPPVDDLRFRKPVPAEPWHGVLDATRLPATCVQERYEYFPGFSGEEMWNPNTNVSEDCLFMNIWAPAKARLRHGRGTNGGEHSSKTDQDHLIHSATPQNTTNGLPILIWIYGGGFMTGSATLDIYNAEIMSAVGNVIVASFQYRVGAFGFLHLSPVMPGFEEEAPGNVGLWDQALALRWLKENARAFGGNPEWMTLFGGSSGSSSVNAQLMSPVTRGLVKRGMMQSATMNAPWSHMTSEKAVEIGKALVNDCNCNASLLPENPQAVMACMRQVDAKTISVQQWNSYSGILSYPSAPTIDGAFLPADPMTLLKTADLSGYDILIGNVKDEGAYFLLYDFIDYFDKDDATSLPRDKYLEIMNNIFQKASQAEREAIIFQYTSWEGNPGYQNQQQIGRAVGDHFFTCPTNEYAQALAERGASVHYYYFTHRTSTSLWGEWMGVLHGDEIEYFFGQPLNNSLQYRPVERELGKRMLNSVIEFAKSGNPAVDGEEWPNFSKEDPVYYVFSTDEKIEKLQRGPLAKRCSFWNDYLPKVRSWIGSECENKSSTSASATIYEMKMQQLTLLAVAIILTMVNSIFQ

Turning to `CCOP(=O)(SC(C)CC)n1ccoc1=O` (stereo not given), the Activity is given as less than 90% in the data set on Myzus persicae [1], greater than 25% in the data set with Meloidogyne incognita [2] and less than 90% with Tetranychus urticae [3].

By pKa is commonly meant the pH at which an ionisable group is half protonated. In [4], `CCOP(=O)(SC(C)CC)N1OCCC1=O` (stereo not given) had a pKa of 10.5. Further, the values for the Activity in the data set on Myzus persicae [5], with Meloidogyne incognita [2] and with Tetranychus urticae [6] were greater than 90%, greater than 25% and greater than 90%, respectively.

For the compound `CCOP(=O)(SC(C)CC)N1CC(S(C)(=O)=O)OC1=O` (stereo not given), the Activity was 0% with Meloidogyne incognita [7], greater than 90% in the data set with Myzus persicae [5] and greater than 90% in the data set on Tetranychus urticae [6].

On to `CCOP(=O)(SC(C)CC)N1CCCOC1=O` (stereo not given), for which the Activity was 0% in the data set on Meloidogyne incognita [7], greater than 90% with Myzus persicae [5] and greater than 90% in the data set on Tetranychus urticae [6].

Regarding `CCOP(=O)(SC(C)CC)N1C(=O)OCC1CC` (stereo not given), the Activity with Meloidogyne incognita [8] is 0%; in the data set with Tetranychus urticae [9], greater than 90%; with Myzus persicae [10], greater than 90%.

On to `CCCCC1COC(=O)N1P(=O)(OCC)SC(C)CC` (stereo not given), for which the Activity was 0% in the data set on Meloidogyne incognita [11], less than 90% with Myzus persicae [1] and greater than 90% with Tetranychus urticae [6].

For `CCCSP(=O)(SC)N1CCOC1=O` (stereo not given), the values for the Activity with Myzus persicae [1], in the data set on Meloidogyne incognita [2] and in the data set on Tetranychus urticae [3] were less than 90%, greater than 25% and less than 90%, respectively.

Turning to `CCOP(=O)(SC(C)CC)N1C(=O)OCC1C` (stereo not given), the Activity with Meloidogyne incognita [8] was 0%; with Tetranychus urticae [9], greater than 90%; with Myzus persicae [10] it was greater than 90%.

Regarding `CCC(C)SP(=O)(OCCF)N1CCOC1=O` (stereo not given), the Activity in the data set with Meloidogyne incognita [7] was 0%; in the data set with Myzus persicae [5], greater than 90%; with Tetranychus urticae [3], less than 90%.

For orientation: LD50 means the dose expected to kill half of the subjects tested. Low readings indicate greater toxicity, high ones lower toxicity. `CCOP(=O)(SC(C)CC)N1CCSC1=O` (stereo not given) [FOSTHIAZATE]: the Activity in the data set on Meloidogyne incognita [8] is listed as 0%; in the data set on Tetranychus urticae [9], greater than 90%; in the data set on Myzus persicae [10] it was greater than 90%. In [12], this compound displayed an LD50 of 127 mg/kg. Besides, the pKa in [4] is 11.6.

Turning to `CCOP(=O)(SCC(C)C)N1CCOC1=O` (stereo not given), the Activity in the data set on Meloidogyne incognita [11] was 0%; in the data set on Tetranychus urticae [9], greater than 90%; in the data set on Myzus persicae [10] it was greater than 90%.

As to `CCCSP(=O)(NC)N1CCOC1=O` (stereo not given), the Activity in the data set with Myzus persicae [5] is listed as greater than 90%; in the data set with Meloidogyne incognita [2], greater than 25%; in the data set with Tetranychus urticae [6], greater than 90%.

For `CCC(C)SP(=O)(OC)N1CCOC1=O` (stereo not given), the Activity in the data set on Myzus persicae [5] is recorded as greater than 90%; in the data set on Meloidogyne incognita [2], greater than 25%; with Tetranychus urticae [6] it was greater than 90%.

On to `CCOP(=S)(SC(C)CC)N1CCOC1=O` (stereo not given), for which the Activity was greater than 90% in the data set with Myzus persicae [5], greater than 25% in the data set with Meloidogyne incognita [2] and greater than 90% with Tetranychus urticae [6].

A word on the LC50: it is the concentration that kills 50% of the test population. Low values mean a more lethal substance, high ones a less lethal substance. In the case of `CCOP(=O)(SC(C)CC)N1CCSC1=O` (single isomer, unassigned; (+)) [FOSTHIAZATE], the LC50 is given as greater than 53.7 ppm in the data set on Myzus persicae [13] and greater than 800 ppm in the data set on Tetranychus urticae [15]. Moreover, the EC50 in the data set on Meloidogyne incognita [14] was 2.339 ppm. Moreover, the Activity with Musca domestica stood at 1.945 µg.

Consider `CCOP(=O)(SC(C)C)N1CCOC1=O` (stereo not given), for which the results for the Activity in the data set on Meloidogyne incognita [7], with Myzus persicae [5] and in the data set with Tetranychus urticae [6] were 0%, greater than 90% and greater than 90%, respectively.

`CCOP(=O)(SC(C)CC)N1C(=O)CCC1=O` (stereo not given) had a pKa in data set [4] of 9.6. For the same compound, the Activity is less than 90% with Myzus persicae [1], greater than 25% in the data set with Meloidogyne incognita [2] and less than 90% in the data set with Tetranychus urticae [3].

Consider `CCOP(=O)(SC(C)CC)N1C(=O)OCC1C(=O)OC` (stereo not given), for which the Activity in the data set with Myzus persicae [1] is reported as less than 90%; with Meloidogyne incognita [2], greater than 25%; with Tetranychus urticae [6] it was greater than 90%.

On to `CCOP(=O)(SC(C)CC)N1C(=O)OCC1OC` (stereo not given), for which the Activity in the data set on Meloidogyne incognita [8] is recorded as 0%; in the data set with Myzus persicae [16] it was greater than 90%; with Tetranychus urticae [17] it was greater than 90%.

With `CCOP(=O)(SC(C)CC)N1CCSC1=S` (stereo not given), the figures for the Activity with Myzus persicae [5], in the data set with Tetranychus urticae [17] and in the data set on Meloidogyne incognita [2] were greater than 90%, greater than 90% and greater than 25%, respectively.

Take `CCOP(=O)(SC(C)CC)N1CC(C)OC1=O` (stereo not given): the Activity in the data set on Meloidogyne incognita [8] is reported as 0%; in the data set with Tetranychus urticae [9] it was greater than 90%; with Myzus persicae [10] it was greater than 90%.

As for `CCOP(=O)(SC(C)CC)N1CCOC1=O` (stereo not given), the Activity in the data set with Meloidogyne incognita [8] is 0%; in the data set with Tetranychus urticae [9] it was greater than 90%; in the data set with Myzus persicae [10] it was greater than 90%. In [12], this compound returned an LD50 of less than 30 mg/kg. This compound displayed a pKa in [4] of 11.8.

Regarding `CCOP(=O)(SC(C)CC)N1CCSC1=C(C#N)C#N` (stereo not given), the Activity in the data set with Myzus persicae [5] is greater than 90%; in the data set on Meloidogyne incognita [2], greater than 25%; with Tetranychus urticae [3] it was less than 90%.

For the compound `CCOP(=O)(SC(C)CC)N1CCSC1=O` (racemic) [FOSTHIAZATE], the LC50 with Myzus persicae [13] is recorded as greater than 4.06 ppm; with Tetranychus urticae [15], greater than 22.4 ppm. For the same compound, the EC50 with Meloidogyne incognita [14] was 29.6 ppm. Besides, the Activity with Musca domestica came out at 18 µg.

With `CCOP(=O)(SC(C)CC)N1C(=O)OC(C)C1C` (stereo not given), the Activity is listed as 0% in the data set with Meloidogyne incognita [8] and greater than 90% in the data set with Tetranychus urticae [9].

Turning to `CCOP(=O)(SC(C)CC)N1CC(=O)SC1=O` (stereo not given), the Activity with Myzus persicae [1] is on record as less than 90%; with Meloidogyne incognita [2], greater than 25%; in the data set with Tetranychus urticae [3] it was less than 90%.

As to `CCOP(=O)(SC(C)CC)N1CC(C#N)OC1=O` (stereo not given), the Activity in the data set on Meloidogyne incognita [7] is listed as 0%; in the data set with Myzus persicae [1] it was less than 90%; in the data set on Tetranychus urticae [6] it was greater than 90%.

For `CCOP(=O)(SC(C)CC)N1CCCC1=O` (stereo not given), the Activity in the data set with Meloidogyne incognita [8] was 0%; in the data set on Myzus persicae [16], greater than 90%; with Tetranychus urticae [6], greater than 90%.

As to `CCOP(=O)(SC(C)CC)N1CCSC1=O` (stereo in doubt; (-)-8) [FOSTHIAZATE], the LC50 in the data set with Myzus persicae [13] is listed as greater than 13.2 ppm; with Tetranychus urticae [15], 35.7 ppm. This compound displayed an EC50 in the data set on Meloidogyne incognita [14] of 0.079 ppm. On Acetylcholinesterase, the IC50 was greater than 1000 µM. The compound also displayed an Activity in the data set on Musca domestica of 0.108 µg.

Turning to `CCCOP(=O)(SC(C)CC)N1CCOC1=O` (stereo not given), the Activity with Meloidogyne incognita [7] is on record as 0%; in the data set with Myzus persicae [5], greater than 90%; with Tetranychus urticae [6], greater than 90%.

`CCOP(=O)(OCC)N1CCOC1=O`: the Activity in the data set with Myzus persicae [1] is reported as less than 90%; in the data set with Meloidogyne incognita [2], greater than 25%; in the data set with Tetranychus urticae [3], less than 90%.

Take `CCOP(=O)(SC(C)CC)N1CC(C(C)(C)C)OC1=O` (stereo not given): the Activity with Meloidogyne incognita [7] is recorded as 0%; in the data set on Myzus persicae [5], greater than 90%; in the data set on Tetranychus urticae [17], greater than 90%.
